Literature values, collected in patent US20210353546A1, “DUAL RELEASE PHARMACEUTICAL COMPOSITIONS COMPRISING THE COMBINATION OF A BETA-3 ADRENORECEPTOR AGONIST AND A MUSCARINIC RECEPTOR ANTAGONIST” (Jubilant Pharma Holdings Inc., priority 2020, published 2021).
Read-outs that look alike come from different tables or passages of the source.

Key:
[1] = not given; remark: listed apart in the source

Nc1nc(CC(=O)Nc2ccc(CCNC[C@H](O)c3ccccc3)cc2)cs1 [Mirabegron, 2-(2-aminothiazol-4-yl)-N-[4-(2-{[(2R)-2-hydroxy2-phenylethyl]amino}ethyl)phenyl] acetamide]
half-life (in vivo): approximately 50 hours | bioavailability, food effect (presence of food in the Gastrointestinal Tract): affected by the presence of food | Solubility ([1]; in dimethyl sulfoxide): soluble | Solubility ([1]; in methanol): soluble | Solubility ([1]; in water): practically insoluble
